Read-outs that look alike come from different tables or passages of the source.
Experiments:
Sting protein [1] = target: T1, Sting protein (Homo sapiens, UniProt Q86WV6, G230A/H232R/R293Q/R71H); experiment: Agonistic function test on Sting protein: IFN-β and CXCL10 (IP10) cytokines produced by THP1 cells (ELISA); type: cell-based; conditions: for EC50: 18 hours, ELISA of supernatant; for activity of stimulating IFN-β and CXCL10 (IP10) cytokines produced by THP1 cells (in words): listed compounds compared with the reference compound
T1 construct: endogenous in cells; host or cells: THP1 cells (Shanghai Cell Bank)
Protocol: In this experiment, the function of sting agonist was evaluated by detecting the changes of IFN-β and CXCL10 (IP10) cytokines produced by human peripheral blood mononuclear cell line THP1 cells (Shanghai Cell Bank) stimulated by the compounds. On the first day of the experiment, the ELISA plate was coated according to the IFN-β (R&D, #DY814-05) and IP10 (BD, #550926) ELISA test kit instructions. The compound was dissolved into DMSO stock solution and diluted with culture medium to a 2× working concentration, added to a 96-well plate, 100 μL per well. The THP1 cells in the logarithmic growth phase were taken to count, and were diluted to a concentration of 2*10^6/mL, added to the above-mentioned 96-well plate containing the compounds, with […], per well, mixed well, and incubated in a 37° C., 5% CO2 incubator for 18 hours. On the second day, the above cell culture supernatant was taken, 100 μL per well, and tested according to IFN-β and IP10 ELISA test kits respectively. The OD450 value was read, and converted into IFN-β and IP10 concentration according to the standard curve, and fitted with GraphPad 5.0 to calculate the EC50 value of the dose-efficiency curve.

Sting protein [2] = target: Sting protein (Homo sapiens, UniProt Q86WV6); experiment: Binding affinity test of the compound and Sting protein by protein thermal transfer test (TSA); conditions: Kd fitted from change of ΔTm with compound concentration
Protocol: The protein thermal transfer test (TSA) was used to determine the binding affinity of the compound to Sting protein. The 100 ug/ml Sting protein was mixed with different concentrations of the compound and 5× SYPRO Orange dye in a buffer of 20 mM Hepes, 150 mM NaCl, 1 mM MgCl2, 1 mM DTT, pH=7.5. The protein dissolution curve was measured on a qPCR instrument, the Tm value was fitted with Protein Thermal Shift Software 1.3 software, and the Tm difference of the protein was calculated when different concentrations of compound and no compound were added. The dissociation constant Kd was fitted and obtained according to the change of ΔTm with the concentration of the compound. […] The Kd value of each compound is classified according to the following instructions: […]

CT26 cells = experiment: Tumor inhibitory effect, CT26 tumor re-excitation model; type: in vivo, mice
Protocol: The tumor regression of each group of mice in the CT26 anti-tumor efficacy model of the above experimental example 4 was further observed. After 30 days of the last administration, CT26 cells were inoculated subcutaneously on the back. Each mouse was inoculated with 100 μL cell suspension containing 5×10^5 cells; mice that have not been treated with drugs were used as a control group to inoculate CT26 cells in the same way. The tumor was observed and the growth of the tumor was recorded.

Sequence of Sting protein (Homo sapiens, UniProt Q86WV6) (Q86WV6 whole entry H232R, species assumed): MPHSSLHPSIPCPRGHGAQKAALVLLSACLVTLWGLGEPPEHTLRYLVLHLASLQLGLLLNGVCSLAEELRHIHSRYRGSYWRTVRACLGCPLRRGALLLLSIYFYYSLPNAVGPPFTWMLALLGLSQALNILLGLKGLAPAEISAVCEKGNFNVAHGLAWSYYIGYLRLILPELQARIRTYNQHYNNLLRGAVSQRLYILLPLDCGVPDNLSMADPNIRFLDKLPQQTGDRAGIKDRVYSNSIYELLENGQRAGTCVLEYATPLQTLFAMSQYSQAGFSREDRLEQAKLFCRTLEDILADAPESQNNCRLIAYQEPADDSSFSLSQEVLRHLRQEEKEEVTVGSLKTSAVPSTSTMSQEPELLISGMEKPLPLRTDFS
T1 sequence (Q86WV6 whole entry R71H/G230A/H232R/R293Q): as the sequence (Q86WV6 whole entry H232R, species assumed) above, with R71H, G230A, R293Q counted along it

| EC50 (Sting protein [1]; read-out: IFN-β EC50) | EC50 (Sting protein [1]; read-out: IP10 EC50) | activity of stimulating IFN-β and CXCL10 (IP10) cytokines produced by THP1 cells (in words) (Sting protein [1]) | Kd (Sting protein [2]) | SMILES | tumor curve in CT26 tumor re-excitation model (FIG. 2) (CT26 cells; 1 mg/kg) | tumor curve in CT26 tumor re-excitation model (FIG. 2) (CT26 cells; 3 mg/kg) | tumor curve in CT26 tumor re-excitation model (FIG. 2) (CT26 cells; 1.5 mg/kg) | tumor curve in CT26 tumor re-excitation model (FIG. 2) (CT26 cells; 4.5 mg/kg) |
| --- | --- | --- | --- | --- | --- | --- | --- | --- |
| 10 to 100 nM | 10 to 100 nM | comparable or even higher activity | 1000 to 10000 nM | CCc1nc(C)sc1C(=O)Nc1nc2cc(C(N)=O)cc(OC)c2n1C/C=C/Cn1c(NC(=O)c2cc(C)nn2CC)nc2cc(C(N)=O)cc(OCCCN3CCN(C4CC4)CC3)c21 [Example 15] | overlap | overlap | – | – |
| 10 to 100 nM | 10 to 100 nM | comparable or even higher activity | 1000 to 10000 nM | CCc1nc(C)sc1C(=O)Nc1nc2cc(C(N)=O)cc(OC)c2n1C/C=C/Cn1c(NC(=O)c2cc(C)nn2CC)nc2cc(C(N)=O)cc(OCCCN3CCOCC3)c21 [Example 2, (E)-N-(5-carbamoyl-1-(4-(5-carbamoyl-2-(1-ethyl-3-methyl-1H-pyrazole-5-formylamino)-7-(3-morpholino)-1H-benzo[d]imidazol-1-yl)but-2-en-1-yl)-7-methoxy-1H-benzo[d]imidazol-2-yl)-4-ethyl-2-methylthiazole-5-formamide] | – | – | overlap | overlap |
| 10 to 100 nM | < 10 nM | comparable or even higher activity | 1000 to 10000 nM | CCc1nc(C)sc1C(=O)Nc1nc2cc(C(N)=O)cc(SC)c2n1C/C=C/Cn1c(NC(=O)c2cc(C)nn2CC)nc2cc(C(N)=O)cc(OCCCN3CCOCC3)c21 [Example 5] | – | – | overlap | – |
| 100 to 1000 nM | 10 to 100 nM | – | 1000 to 10000 nM | CCc1nc(C)sc1C(=O)Nc1nc2cc(C(N)=O)cc(OC)c2n1C/C=C/Cn1c(NC(=O)c2cc(C)nn2CC)nc2cc(C(N)=O)cc(OCCCN3CCN(CC)CC3)c21 [Example 13] | – | – | – | – |
| 100 to 1000 nM | 10 to 100 nM | – | 1000 to 10000 nM | CCc1nc(C)sc1C(=O)Nc1nc2cc(C(N)=O)cc(OCCCN3CCN(CC)CC3)c2n1C/C=C/Cn1c(NC(=O)c2cc(C)nn2CC)nc2cc(C(N)=O)cc(SC)c21 [Example 17] | – | – | overlap | – |
| 10 to 100 nM | < 10 nM | comparable or even higher activity | 1000 to 10000 nM | CCn1nc(C)cc1C(=O)Nc1nc2cc(C(N)=O)cc(SC)c2n1C/C=C/Cn1c(NC(=O)c2c(F)c(C)nn2CC)nc2cc(C(N)=O)cc(OCCCN3CCOCC3)c21 [Example 51, (E)-1-(4-(5-(5-carbamoyl-2-)(1-styrene-3-methyl-1H-pyrazole-5-formylamino)-7-(methylthio)-1H-benzo[d]imidazol-1-yl)but-2-en-1-yl)-2-(1-styrene-4-fluoro-3-methyl-1H-pyrazole-5-anthralamido)-7-(3-morpholinopropoxy)-1H-benzo[d]imidazole-5-formylamide] | – | – | – | – |
| < 10 nM | < 10 nM | comparable or even higher activity | 1000 to 10000 nM | CCc1nc(C)sc1C(=O)Nc1nc2cc(C(N)=O)cc(OCCCN3CCN(C4CC4)CC3)c2n1C/C=C/Cn1c(NC(=O)c2cc(C)nn2CC)nc2cc(C(N)=O)cc(SC)c21 [Example 19] | – | – | – | – |
| 100 to 1000 nM | 10 to 100 nM | – | 1000 to 10000 nM | CCc1nc(C)sc1C(=O)Nc1nc2cc(C(N)=O)cc(OC)c2n1C/C=C/Cn1c(NC(=O)c2cc(C)nn2CC)nc2cc(C(N)=O)cc(OCCCN3CCN(C(C)=O)CC3)c21 [Example 29] | overlap | – | – | – |
| 10 to 100 nM | – | comparable or even higher activity | 1000 to 10000 nM | CCc1nc(C)sc1C(=O)Nc1nc2cc(C(N)=O)cc(OCCCN3CCN(C(=O)OC)CC3)c2n1C/C=C/Cn1c(NC(=O)c2cc(C)nn2CC)nc2cc(C(N)=O)cc(SC)c21 [Example 40] | – | – | – | – |
